The source of these data is patent publication US9580463B2 (BRISTOL-MYERS SQUIBB COMPANY, priority 2013, dated 2017).

Experiment [1] concerns HCV genotype 1b (Con1) replicon in HUH-7 cells. The experiment is described as follows: HCV replicon luciferase reporter assay, genotype 1b. The format is cell-based. To be noted: Hepatitis C virus, 72 h, genotype 1b replicon, 3 days incubation, read-out: LE_1b (EC50, range). The essentials: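 Twenty-point, threefold compound titrations (0.5% DMSO) were incubated 3 days at 37 °C with 3.0×10^3 HUH-7 cells/well in 4% FCS. The cells stably carried luciferase replicons: genotype 1b Con1 (S1179I) or 1a H77 (NS3 P1496L, NS5A S2204I). Renilla signal was read after 2 h with 7.5 μM EnduRen, and EC50 was taken from a four-parameter logistic fit. Cytotoxicity (CC50) was measured by Cell Titer-Blue, 8 h.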

The test system of experiment [2] is HCV genotype 1a (H77 strain) replicon in HUH-7 cells. Nature of the experiment: HCV replicon luciferase reporter assay, genotype 1a. It is filed as cell-based. The note with it: Hepatitis C virus, 72 h, genotype 1a replicon, 3 days incubation, read-out: LE_1a (EC50, range). An excerpt:
An HCV replicon whole cell system was established as described by Lohmann V, Korner F, Koch J, Herian U, Theilmann L, Bartenschlager R., Science 285(5424):110-3 (1999) and modified to introduce a luciferase reporter, as first described by Krieger et al (Krieger N, Lohmann V, and Bartenschlager R, J. Virol. 75(10):4614-4624 (2001)). CDNA encoding a humanized form of the Renilla luciferase gene and a linker sequence fused directly to the 3′-end of the luciferase gene were introduced into the replicon construct using an Asc1 restriction site located in core, directly upstream of the neomycin marker gene. The adaptive mutation at position 1179 (serine to isoleucine) was also introduced (Blight K J, Kolykhalov, A A, Rice, C M, Science 290(5498):1972-1974). A stable cell line constitutively expressing this HCV replicon construct was generated by first linearizing plasmid DNAs with ScaI. RNA transcripts were synthesized in vitro using the T7 MegaScript transcription kit (Ambion, Austin, Tex.) according to manufacturer's directions. In vitro transcripts of the cDNA were transfected into the human hepatoma cell line, HUH-7. […] Resulting cell lines were characterized for positive and negative strand RNA production and protein production over time.
A stable HCV replicon luciferase reporter cell line representing the genotype 1a H77 strain (Yanagi M, Purcell R H, Emerson S U, et al. Transcripts from a single full-length cDNA clone of hepatitis C virus are infectious when directly transfected into the liver of a chimpanzee. Proc Natl Acad Sci USA 1997; 94(16):8738-8743) was generated as described previously for the genotype 1b (Con1) replicon luciferase cell line. The replicon construct was modified by introducing mutations were introduced into the genes encoding the NS3 helicase domain (proline replaced by leucine at position 1496) and NS5A (serine to isoleucine at position 2204) to improve replication in cell culture.
HCV replicon luciferase assays were developed to monitor the inhibitory effects of compounds described in the disclosure on HCV genotypes 1a and 1b viral replication. HUH-7 cells, constitutively expressing the HCV replicon, were grown in Dulbecco's Modified Eagle Media (DMEM) (Gibco-BRL) containing 10% Fetal calf serum (FCS) (Sigma) and 1 mg/mL G418 (Gibco-BRL). Compounds were serially diluted 3 folds in DMSO for a twenty-point titration and subsequently transferred to sterile 384-well tissue-culture treated plates (Corning cat #3571). The plates were then seeded with 50 μL of cells at a density of 3.0×10^3 cells/well in DMEM containing 4% FCS (final DMSO concentration at 0.5%). After 3 days incubation at 37° C., cells were analyzed for Renilla Luciferase activity using the EnduRen as substrate (Promega cat #E6485). The EnduRen substrate was diluted in DMEM and then added to the plates to a final concentration of 7.5 μM. The plates were incubated for 2 hrs at 37° C. and then read immediately for 30 seconds with Viewlux Imager (PerkinElmer) using a luminescence program. To assess cytotoxicity of compounds, CC50 values were generated by multiplexing the EnduRen-containing plates with Cell Titer-Blue (Promega, cat # G8082). Cell-Titer Blue (3 μL) was added to each well and incubated for 8 hrs at 37° C. The fluorescence signal from each well was read, with an excitation wavelength at 525/10 nm and an emission wavelength of 598/10 nm, using the Viewlux Imager.
The EC50 values for compounds were calculated by using a four-parameter logistic equation: y=A+((B−A)/(1+((C/x)^D))), where A and B denotes minimal and maximal % inhibition, respectively, C is the EC50, D is the hill slope and x represents compound concentration.

Structures are written as SMILES.

Take `COC[C@@H]1CCCC/C=C\[C@@H]2C[C@@]2(C(=O)NS(=O)(=O)C2(C)CC2)NC(=O)[C@@H]2C[C@@H](Oc3nccc4cc(OC)ccc34)CN2C(=O)[C@H]1NC(=O)OC(C)(C)C(F)(F)F` [Compound 1001, 1,1,1-trifluoro-2-methylpropan-2-yl ((2R,6S,7R,13aS,14aR,16aS,Z)-2-((6-methoxyisoquinolin-1-yl)oxy)-7-(methoxymethyl)-14a-(((1-methylcyclopropyl)sulfonyl)carbamoyl)-5,16-dioxo-1,2,3,5,6,7,8,9,10,11,13a,14,14a,15,16,16a-hexadecahydrocyclopropa[e]pyrrolo[1,2-a][1,4]diazacyclopentadecin-6-yl)carbamate]: the results for the EC50 in experiment [1] and in experiment [2] were 0.51 to 1 nM and 1.01 to 5 nM, respectively.

Take `COC[C@@H]1CCCC/C=C\[C@@H]2C[C@@]2(C(=O)NS(=O)(=O)C2(C)CC2)NC(=O)[C@@H]2C[C@@H](Oc3ncc(OC)c4ccccc34)CN2C(=O)[C@H]1NC(=O)OC(C)(C)C(F)(F)F` [Compound 1002, 1,1,1-trifluoro-2-methylpropan-2-yl ((2R,6S,7R,13aS,14aR,16aS,Z)-2-((4-methoxyisoquinolin-1-yl)oxy)-7-(methoxymethyl)-14a-(((1-methylcyclopropyl)sulfonyl)carbamoyl)-5,16-dioxo-1,2,3,5,6,7,8,9,10,11,13a,14,14a,15,16,16a-hexadecahydrocyclopropa[e]pyrrolo[1,2-a][1,4]diazacyclopentadecin-6-yl)carbamate]: the 50% effective concentration (EC50) in experiment [1] lay within 0.1 to 0.5 nM; in experiment [2] it was 0.51 to 1 nM.

With `COC[C@@H]1C[C@H](C)CC/C=C\[C@@H]2C[C@@]2(C(=O)NS(=O)(=O)C2CC2)NC(=O)[C@@H]2C[C@@H](Oc3ncc(OC)c4ccccc34)CN2C(=O)[C@H]1NC(=O)OC(C)(C)C` [Compound 1003, tert-butyl ((2R,6S,7R,9R,13aS,14aR,16aS,Z)-14a-((cyclopropylsulfonyl)carbamoyl)-2-((4-methoxyisoquinolin-1-yl)oxy)-7-(methoxymethyl)-9-methyl-5,16-dioxo-1,2,3,5,6,7,8,9,10,11,13a,14,14a,15,16,16a-hexadecahydrocyclopropa[e]pyrrolo[1,2-a][1,4]diazacyclopentadecin-6-yl)carbamate], the EC50 fell in the range of 0.1 to 0.5 nM in experiment [1] and 0.51 to 1 nM in experiment [2].

Take `COC[C@@H]1C[C@@H](C)CC/C=C\[C@@H]2C[C@@]2(C(=O)NS(=O)(=O)C2CC2)NC(=O)[C@@H]2C[C@@H](Oc3ncc(OC)c4ccccc34)CN2C(=O)[C@H]1NC(=O)OC(C)(C)C` [Compound 1004, tert-butyl ((2R,6S,7R,9S,13aS,14aR,16aS,Z)-14a-((cyclopropylsulfonyl)carbamoyl)-2-((4-methoxyisoquinolin-1-yl)oxy)-7-(methoxymethyl)-9-methyl-5,16-dioxo-1,2,3,5,6,7,8,9,10,11,13a,14,14a,15,16,16a-hexadecahydrocyclopropa[e]pyrrolo[1,2-a][1,4]diazacyclopentadecin-6-yl)carbamate]: the EC50 in experiment [1] and in experiment [2] was 1.01 to 5 nM in each case.

In the case of `COC[C@@H]1C[C@H](C)CC/C=C\[C@@H]2C[C@@]2(C(=O)NS(=O)(=O)C2(C)CC2)NC(=O)[C@@H]2C[C@@H](Oc3nccc4cc(OC)ccc34)CN2C(=O)[C@H]1NC(=O)OC(C)(C)C` [Compound 1005, tert-butyl ((2R,6S,7R,9R,13aS,14aR,16aS,Z)-2-((6-methoxyisoquinolin-1-yl)oxy)-7-(methoxymethyl)-9-methyl-14a-(((1-methylcyclopropyl)sulfonyl)carbamoyl)-5,16-dioxo-1,2,3,5,6,7,8,9,10,11,13a,14,14a,15,16,16a-hexadecahydrocyclopropa[e]pyrrolo[1,2-a][1,4]diazacyclopentadecin-6-yl)carbamate], the half-maximal effective concentration (EC50) in experiment [1] lay within 0.1 to 0.5 nM; in experiment [2], 1.01 to 5 nM.

For the compound `COC[C@@H]1C[C@@H](C)CC/C=C\[C@@H]2C[C@@]2(C(=O)NS(=O)(=O)C2(C)CC2)NC(=O)[C@@H]2C[C@@H](Oc3nccc4cc(OC)ccc34)CN2C(=O)[C@H]1NC(=O)OC(C)(C)C` [Compound 1006, tert-butyl ((2R,6S,7R,9S,13aS,14aR,16aS,Z)-2-((6-methoxyisoquinolin-1-yl)oxy)-7-(methoxymethyl)-9-methyl-14a-(((1-methylcyclopropyl)sulfonyl)carbamoyl)-5,16-dioxo-1,2,3,5,6,7,8,9,10,11,13a,14,14a,15,16,16a-hexadecahydrocyclopropa[e]pyrrolo[1,2-a][1,4]diazacyclopentadecin-6-yl)carbamate], the EC50 in experiment [1] is 1.01 to 5 nM; in experiment [2], 5.01 to 35 nM.

`COC[C@@H]1CCCC/C=C\[C@@H]2C[C@@]2(C(=O)NS(=O)(=O)C2(C)CC2)NC(=O)[C@@H]2C[C@@H](Oc3ncc(OC)c4ccccc34)CN2C(=O)[C@H]1NC(=O)OC(C)(C)C` [Compound 1007, tert-butyl ((2R,6S,7R,13aS,14aR,16aS,Z)-2-((4-methoxyisoquinolin-1-yl)oxy)-7-(methoxymethyl)-14a-(((1-methylcyclopropyl)sulfonyl)carbamoyl)-5,16-dioxo-1,2,3,5,6,7,8,9,10,11,13a,14,14a,15,16,16a-hexadecahydrocyclopropa[e]pyrrolo[1,2-a][1,4]diazacyclopentadecin-6-yl)carbamate]: the figures for the EC50 in experiment [1] and in experiment [2] were 0.51 to 1 nM and 1.01 to 5 nM, respectively.

Take `COC[C@@H]1C[C@@H](C)CC/C=C\[C@@H]2C[C@@]2(C(=O)NS(=O)(=O)C2CC2)NC(=O)[C@@H]2C[C@@H](Oc3nccc4cc(OC)ccc34)CN2C(=O)[C@H]1NC(=O)OC(C)(C)C` [Compound 1008, tert-butyl ((2R,6S,7R,9S,13aS,14aR,16aS,Z)-14a-((cyclopropylsulfonyl)carbamoyl)-2-((6-methoxyisoquinolin-1-yl)oxy)-7-(methoxymethyl)-9-methyl-5,16-dioxo-1,2,3,5,6,7,8,9,10,11,13a,14,14a,15,16,16a-hexadecahydrocyclopropa[e]pyrrolo[1,2-a][1,4]diazacyclopentadecin-6-yl)carbamate]: the half-maximal effective concentration (EC50) in experiment [1] and in experiment [2] was 1.01 to 5 nM in each case.

Turning to `COC[C@@H]1C[C@H](C)CC/C=C\[C@@H]2C[C@@]2(C(=O)NS(=O)(=O)C2CC2)NC(=O)[C@@H]2C[C@@H](Oc3nccc4cc(OC)ccc34)CN2C(=O)[C@H]1NC(=O)OC(C)(C)C` [Compound 1009, tert-butyl ((2R,6S,7R,9R,13aS,14aR,16aS,Z)-14a-((cyclopropylsulfonyl)carbamoyl)-2-((6-methoxyisoquinolin-1-yl)oxy)-7-(methoxymethyl)-9-methyl-5,16-dioxo-1,2,3,5,6,7,8,9,10,11,13a,14,14a,15,16,16a-hexadecahydrocyclopropa[e]pyrrolo[1,2-a][1,4]diazacyclopentadecin-6-yl)carbamate], the half-maximal effective concentration (EC50) in experiment [1] and in experiment [2] was 1.01 to 5 nM throughout.

As to `COC[C@@H]1C[C@H](C)CC/C=C\[C@@H]2C[C@@]2(C(=O)NS(=O)(=O)C2(C)CC2)NC(=O)[C@@H]2C[C@@H](Oc3ncc(OC)c4ccccc34)CN2C(=O)[C@H]1NC(=O)OC(C)(C)C` [Compound 1010, tert-butyl ((2R,6S,7R,9R,13aS,14aR,16aS,Z)-2-((4-methoxyisoquinolin-1-yl)oxy)-7-(methoxymethyl)-9-methyl-14a-(((1-methylcyclopropyl)sulfonyl)carbamoyl)-5,16-dioxo-1,2,3,5,6,7,8,9,10,11,13a,14,14a,15,16,16a-hexadecahydrocyclopropa[e]pyrrolo[1,2-a][1,4]diazacyclopentadecin-6-yl)carbamate], the EC50 in experiment [1] lay within 0.1 to 0.5 nM; in experiment [2], 0.51 to 1 nM.
